In US20030129629A1, “Methods and compositions for the identification, assessment, prevention, and therapy of human cancers” (Millennium Pharmaceuticals, Inc., priority 2000, published 2003):
Where two headings read alike, the source gives them in different places.

Assays:
[1] = system: 60 cancer cell lines (NCI 60 cancer cell line series); assay: NCI-DTP in vitro cancer screen, sulforhodamine B (SRB) growth inhibition, 48 hour exposure; assay type: cell-based, human
Summary of the method: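 NCI-DTP panel of 60 cancer cell lines plated day 0 at line-specific densities, exposed from day 1 to compound at 5 ten-fold-spaced doses in duplicate wells. After 48 h, cell mass stained with sulforhodamine B; −log GI50 derived from dose–response curves, averaged, and classed Low, Medium or High sensitivity.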

[2] = system: 60 cancer cell lines (NCI 60 cancer cell line series); conditions: cited from earlier work

Compound: COc1cccc2c1C(=O)c1c(O)c3c(c(O)c1C2=O)C[C@@](O)(C(C)=O)C[C@@H]3O[C@H]1C[C@H](N)[C@H](O)[C@H](C)O1 [Daunorubicin]
- classification of cell line as Low(1), Medium(2), High(3) sensitivity to compound ([1]; Breast BT-549 CL5013): 1
- classification of cell line as Low(1), Medium(2), High(3) sensitivity to compound ([1]; Breast MCF7(I) CL5001): 3
- classification of cell line as Low(1), Medium(2), High(3) sensitivity to compound ([1]; Breast MCF7/ADRr CL5002): 1
- classification of cell line as Low(1), Medium(2), High(3) sensitivity to compound ([1]; Breast MDA-MB-231 CL5005): 1
- classification of cell line as Low(1), Medium(2), High(3) sensitivity to compound ([1]; Breast MDA-MB-435 CL5011): 1
- classification of cell line as Low(1), Medium(2), High(3) sensitivity to compound ([1]; Breast MDA-N CL5012): 1
- classification of cell line as Low(1), Medium(2), High(3) sensitivity to compound ([1]; Breast T-47D CL5014): 2
- classification of cell line as Low(1), Medium(2), High(3) sensitivity to compound ([1]; CNS SF-268 CL12014): 2
- classification of cell line as Low(1), Medium(2), High(3) sensitivity to compound ([1]; CNS SF-295 CL12015): 2
- classification of cell line as Low(1), Medium(2), High(3) sensitivity to compound ([1]; CNS SNB-19 CL12002): 2
- classification of cell line as Low(1), Medium(2), High(3) sensitivity to compound ([1]; CNS SNB-75(I) CL12005): 2
- classification of cell line as Low(1), Medium(2), High(3) sensitivity to compound ([1]; CNS U251(I) CL12009): 2
- classification of cell line as Low(1), Medium(2), High(3) sensitivity to compound ([1]; Colon COLO-250 CL4010): 1
- classification of cell line as Low(1), Medium(2), High(3) sensitivity to compound ([1]; Colon HCC-2998 CL4002): 1
- classification of cell line as Low(1), Medium(2), High(3) sensitivity to compound ([1]; Colon HCT-15 CL4015): 1
- classification of cell line as Low(1), Medium(2), High(3) sensitivity to compound ([1]; Colon HCT-116 CL4003): 2
- classification of cell line as Low(1), Medium(2), High(3) sensitivity to compound ([1]; Colon HT29(I) CL4001): 2
- classification of cell line as Low(1), Medium(2), High(3) sensitivity to compound ([1]; Colon SW-620 CL4009): 2
- classification of cell line as Low(1), Medium(2), High(3) sensitivity to compound ([1]; Leukemia CCRF-CEM(I) CL7003): 3
- classification of cell line as Low(1), Medium(2), High(3) sensitivity to compound ([1]; Leukemia HL-60(I) CL7008): 3
- classification of cell line as Low(1), Medium(2), High(3) sensitivity to compound ([1]; Leukemia MOLT-4 CL7006): 3
- classification of cell line as Low(1), Medium(2), High(3) sensitivity to compound ([1]; Leukemia SR CL7019): 3
- classification of cell line as Low(1), Medium(2), High(3) sensitivity to compound ([1]; Melanoma M14 CL10014): 1
- classification of cell line as Low(1), Medium(2), High(3) sensitivity to compound ([1]; Melanoma MALME-3M CL10002): 2
- classification of cell line as Low(1), Medium(2), High(3) sensitivity to compound ([1]; Melanoma SK-MEL-5 CL10007): 2
- classification of cell line as Low(1), Medium(2), High(3) sensitivity to compound ([1]; Melanoma SK-MEL-28 CL10008): 1
- classification of cell line as Low(1), Medium(2), High(3) sensitivity to compound ([1]; Melanoma UACC-62 CL10020): 2
- classification of cell line as Low(1), Medium(2), High(3) sensitivity to compound ([1]; Melanoma UACC-257 CL10021): 1
- classification of cell line as Low(1), Medium(2), High(3) sensitivity to compound ([1]; NSCLC A549/ATCC CL1004): 2
- classification of cell line as Low(1), Medium(2), High(3) sensitivity to compound ([1]; NSCLC EKVX CL1008): 1
- classification of cell line as Low(1), Medium(2), High(3) sensitivity to compound ([1]; NSCLC HOP-62 CL1026): 2
- classification of cell line as Low(1), Medium(2), High(3) sensitivity to compound ([1]; NSCLC HOP-92 CL1029): 2
- sensitivity classification Low(1)/Medium(2)/High(3) ([1]; NSCLC NCI-H23(I) CL1001): 2
- classification of cell line as Low(1), Medium(2), High(3) sensitivity to compound ([1]; NSCLC NCI-H226 CL1013): 2
- sensitivity classification Low(1)/Medium(2)/High(3) ([1]; NSCLC NCI-H332M CL1017): 1
- sensitivity classification Low(1)/Medium(2)/High(3) ([1]; NSCLC NCI-H460 CL1021): 3
- sensitivity classification Low(1)/Medium(2)/High(3) ([1]; NSCLC NCI-H522 CL1003): 2
- sensitivity classification Low(1)/Medium(2)/High(3) ([1]; Ovarian IGROV1 CL6010): 2
- sensitivity classification Low(1)/Medium(2)/High(3) ([1]; Ovarian OVCAR-3 CL6001): 1
- sensitivity classification Low(1)/Medium(2)/High(3) ([1]; Ovarian OVCAR-4 CL6002): 1
- sensitivity classification Low(1)/Medium(2)/High(3) ([1]; Ovarian OVCAR-5 CL6003): 1
- sensitivity classification Low(1)/Medium(2)/High(3) ([1]; Ovarian OVCAR-8 CL6005): 2
- sensitivity classification Low(1)/Medium(2)/High(3) ([1]; Prostate DU-145 CL11003): 2
- sensitivity classification Low(1)/Medium(2)/High(3) ([1]; Prostate PC-3(I) CL11001): 2
- sensitivity classification Low(1)/Medium(2)/High(3) ([1]; Renal 786-0 CL9018): 2
- sensitivity classification Low(1)/Medium(2)/High(3) ([1]; Renal A498 CL9013): 1
- sensitivity classification Low(1)/Medium(2)/High(3) ([1]; Renal ACHN CL9023): 2
- sensitivity classification Low(1)/Medium(2)/High(3) ([1]; Renal CAKI-1 CL9015): 2
- sensitivity classification Low(1)/Medium(2)/High(3) ([1]; Renal RXF-393 CL9016): 1
- sensitivity classification Low(1)/Medium(2)/High(3) ([1]; Renal SN12C CL9008): 2
- sensitivity classification Low(1)/Medium(2)/High(3) ([1]; Renal TK10 CL9024): 1
- sensitivity classification Low(1)/Medium(2)/High(3) ([1]; Renal UO-31 CL9004): 1
- −Log (GI50) ([2]; Breast MCF7/ADRr CL5002): 5.3
- −Log (GI50) ([2]; Colon COLO-250 CL4010): 6.8
- −Log (GI50) ([2]; NSCLC NCI-H226 CL1013): 7.5
- −Log (GI50) ([2]; Renal UO-31 CL9004): 6.4

Compound: Bleomycin
- classification of cell line as Low(1), Medium(2), High(3) sensitivity to compound ([1]; Breast MCF7(I) CL5001): 2
- classification of cell line as Low(1), Medium(2), High(3) sensitivity to compound ([1]; Breast MCF7/ADRr CL5002): 2
- classification of cell line as Low(1), Medium(2), High(3) sensitivity to compound ([1]; Breast MDA-MB-231 CL5005): 1
- classification of cell line as Low(1), Medium(2), High(3) sensitivity to compound ([1]; Breast MDA-MB-435 CL5011): 1
- classification of cell line as Low(1), Medium(2), High(3) sensitivity to compound ([1]; Breast MDA-N CL5012): 1
- classification of cell line as Low(1), Medium(2), High(3) sensitivity to compound ([1]; Breast T-47D CL5014): 2
- classification of cell line as Low(1), Medium(2), High(3) sensitivity to compound ([1]; CNS SF-268 CL12014): 2
- classification of cell line as Low(1), Medium(2), High(3) sensitivity to compound ([1]; CNS SF-295 CL12015): 3
- classification of cell line as Low(1), Medium(2), High(3) sensitivity to compound ([1]; CNS SF-539 CL12016): 3
- classification of cell line as Low(1), Medium(2), High(3) sensitivity to compound ([1]; CNS SNB-19 CL12002): 2
- classification of cell line as Low(1), Medium(2), High(3) sensitivity to compound ([1]; CNS SNB-75(I) CL12005): 2
- classification of cell line as Low(1), Medium(2), High(3) sensitivity to compound ([1]; CNS U251(I) CL12009): 2
- classification of cell line as Low(1), Medium(2), High(3) sensitivity to compound ([1]; Colon COLO-250 CL4010): 2
- classification of cell line as Low(1), Medium(2), High(3) sensitivity to compound ([1]; Colon HCT-15 CL4015): 2
- classification of cell line as Low(1), Medium(2), High(3) sensitivity to compound ([1]; Colon HCT-116 CL4003): 2
- classification of cell line as Low(1), Medium(2), High(3) sensitivity to compound ([1]; Colon HT29(I) CL4001): 1
- classification of cell line as Low(1), Medium(2), High(3) sensitivity to compound ([1]; Colon KM12 CL4017): 1
- classification of cell line as Low(1), Medium(2), High(3) sensitivity to compound ([1]; Colon SW-620 CL4009): 2
- classification of cell line as Low(1), Medium(2), High(3) sensitivity to compound ([1]; Leukemia CCRF-CEM(I) CL7003): 2
- classification of cell line as Low(1), Medium(2), High(3) sensitivity to compound ([1]; Leukemia HL-60(I) CL7008): 2
- classification of cell line as Low(1), Medium(2), High(3) sensitivity to compound ([1]; Leukemia K562(I) CL7005): 2
- classification of cell line as Low(1), Medium(2), High(3) sensitivity to compound ([1]; Leukemia MOLT-4 CL7006): 2
- classification of cell line as Low(1), Medium(2), High(3) sensitivity to compound ([1]; Leukemia SR CL7019): 3
- classification of cell line as Low(1), Medium(2), High(3) sensitivity to compound ([1]; Melanoma LOX IMVI CL10001): 3
- classification of cell line as Low(1), Medium(2), High(3) sensitivity to compound ([1]; Melanoma M14 CL10014): 2
- classification of cell line as Low(1), Medium(2), High(3) sensitivity to compound ([1]; Melanoma MALME-3M CL10002): 2
- classification of cell line as Low(1), Medium(2), High(3) sensitivity to compound ([1]; Melanoma SK-MEL-2 CL10005): 1
- classification of cell line as Low(1), Medium(2), High(3) sensitivity to compound ([1]; Melanoma SK-MEL-28 CL10008): 1
- sensitivity classification Low(1)/Medium(2)/High(3) ([1]; NSCLC NCI-H23(I) CL1001): 2
- sensitivity classification Low(1)/Medium(2)/High(3) ([1]; NSCLC NCI-H332M CL1017): 1
- sensitivity classification Low(1)/Medium(2)/High(3) ([1]; NSCLC NCI-H522 CL1003): 2
- sensitivity classification Low(1)/Medium(2)/High(3) ([1]; Ovarian IGROV1 CL6010): 2
- sensitivity classification Low(1)/Medium(2)/High(3) ([1]; Ovarian OVCAR-3 CL6001): 2
- sensitivity classification Low(1)/Medium(2)/High(3) ([1]; Ovarian OVCAR-4 CL6002): 2
- sensitivity classification Low(1)/Medium(2)/High(3) ([1]; Ovarian OVCAR-5 CL6003): 2
- sensitivity classification Low(1)/Medium(2)/High(3) ([1]; Ovarian OVCAR-8 CL6005): 2
- sensitivity classification Low(1)/Medium(2)/High(3) ([1]; Ovarian SK-OV-3 CL6011): 2
- sensitivity classification Low(1)/Medium(2)/High(3) ([1]; Prostate DU-145 CL11003): 2
- sensitivity classification Low(1)/Medium(2)/High(3) ([1]; Prostate PC-3(I) CL11001): 2
- sensitivity classification Low(1)/Medium(2)/High(3) ([1]; Renal 786-0 CL9018): 2
- sensitivity classification Low(1)/Medium(2)/High(3) ([1]; Renal A498 CL9013): 2
- sensitivity classification Low(1)/Medium(2)/High(3) ([1]; Renal ACHN CL9023): 3
- sensitivity classification Low(1)/Medium(2)/High(3) ([1]; Renal SN12C CL9008): 2
- sensitivity classification Low(1)/Medium(2)/High(3) ([1]; Renal TK10 CL9024): 1
- −Log (GI50) ([2]; CNS SF-539 CL12016): 7.7
- −Log (GI50) ([2]; Melanoma LOX IMVI CL10001): 6.8
- −Log (GI50) ([2]; Ovarian OVCAR-3 CL6001): 5.3
